Test results published in patent publication US5879716A, “Methods and compositions for topical delivery of benzoyl peroxide” (priority 1993, dated 1999).
Where two headings read alike, the source gives them in different places.

Experiments:
[1] = Solubility of benzoyl peroxide; type: physicochemical
[2] = cited from earlier work
[3] = human skin specimens used within 7 to 10 days; cited from earlier work

- solution concentration obtainable ([1]; acetone and isopropanol): up to 10 % by weight
- solubility of the drug in the formulation ([1]; formulations F and G): very low solubility
- solubility ([1]; water or normal saline solution): exceedingly low solubility
SMILES: O=C(OOC(=O)c1ccccc1)c1ccccc1 [Benzoyl peroxide, benzoyl peroxide]
- solubility ([2]; alcohols): slightly soluble in alcohols
- solubility ([2]; organic solvents): soluble in nearly all organic solvents
- solubility ([2]; organic solvents, listed as benzoyl peroxide): limited solubility in most solvents
- solubility ([2]; water): slightly soluble in water
- metabolism during skin absorption [3]: metabolized to benzoic acid and accumulated as such in the receptor fluid
